Results as given in ChEMBL document CHEMBL1201862, “PubChem BioAssay data set” (2004).
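Step 1: Grow cells in 96-well plates. Step 2: Expose to compound for 48 hours at 5 concentrations. Step 3: Interpolate endpoints linearly; if unreached, use highest concentration. Abbreviation: GI50, concentration required for 50% inhibition of growth.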 Calls of active or inactive are those of the source. No stated cut-off is given here; in the data, active = GI50 up to about 1.1 µM and inactive = higher.

Key:
Test in all cases: inhibition of tumour cell growth, NCI panel, 48 h
SR = tested on: SR
UO-31 = tested on: UO-31
SF-539 = tested on: SF-539
SN12C = tested on: SN12C
SK-MEL-2 = tested on: SK-MEL-2
HL-60 = tested on: HL-60
UACC-62 = tested on: UACC-62
SK-MEL-28 = tested on: SK-MEL-28
OVCAR-8 = tested on: OVCAR-8
MDA-N = tested on: MDA-N
HT-29 = tested on: HT-29
SK-OV-3 = tested on: SK-OV-3
U-251 = tested on: U-251
SK-MEL-5 = tested on: SK-MEL-5
NCI-H226 = tested on: NCI-H226
HCC 2998 = tested on: HCC 2998
LOX IMVI = tested on: LOX IMVI
SNB-75 = tested on: SNB-75
IGROV-1 = tested on: IGROV-1
HOP-62 = tested on: HOP-62
DU-145 = tested on: DU-145
KM12 = tested on: KM12
786-0 = tested on: 786-0
SF-268 = tested on: SF-268
NCI-H23 = tested on: NCI-H23
MDA-MB-231 = tested on: MDA-MB-231
TK-10 = tested on: TK-10
OVCAR-5 = tested on: OVCAR-5
MCF7 = tested on: MCF7
A549 = tested on: A549
PC-3 = tested on: PC-3
MDA-MB-435 = tested on: MDA-MB-435
EKVX = tested on: EKVX
HCT-116 = tested on: HCT-116
SNB-19 = tested on: SNB-19
ACHN = tested on: ACHN
MOLT-4 = tested on: MOLT-4
NCI/ADR-RES = tested on: NCI/ADR-RES
A498 = tested on: A498
HCT-15 = tested on: HCT-15
SF-295 = tested on: SF-295
K562 = tested on: K562
OVCAR-3 = tested on: OVCAR-3
BT-549 = tested on: BT-549
HOP-92 = tested on: HOP-92
Malme-3M = tested on: Malme-3M
UACC-257 = tested on: UACC-257
CCRF-CEM = tested on: CCRF-CEM
NCI-H460 = tested on: NCI-H460
OVCAR-4 = tested on: OVCAR-4
T47D = tested on: T47D
M14 = tested on: M14
Hs-578T = tested on: Hs-578T
SW-620 = tested on: SW-620
RPMI-8226 = tested on: RPMI-8226
RXF 393 = tested on: RXF 393
COLO 205 = tested on: COLO 205
CAKI-1 = tested on: CAKI-1
NCI-H522 = tested on: NCI-H522

## O=CN(O)CC(=O)O
SR
  GI50: > 100 µM (inactive)
UO-31
  GI50: > 100 µM (inactive)
SF-539
  GI50: > 100 µM (inactive)
SN12C
  GI50: > 100 µM (inactive)
SK-MEL-2
  GI50: > 100 µM (inactive)
HL-60
  GI50: > 100 µM (inactive)
UACC-62
  GI50: > 100 µM (inactive)
SK-MEL-28
  GI50: > 100 µM (inactive)
OVCAR-8
  GI50: > 100 µM (inactive)
MDA-N
  GI50: > 100 µM (inactive)
HT-29
  GI50: > 100 µM (inactive)
SK-OV-3
  GI50: > 100 µM (inactive)
U-251
  GI50: > 100 µM (inactive)
SK-MEL-5
  GI50: > 100 µM (inactive)
NCI-H226
  GI50: > 100 µM (inactive)
HCC 2998
  GI50: > 100 µM (inactive)
LOX IMVI
  GI50: > 100 µM (inactive)
SNB-75
  GI50: > 100 µM (inactive)
IGROV-1
  GI50: > 100 µM (inactive)
HOP-62
  GI50: > 100 µM (inactive)
DU-145
  GI50: > 100 µM (inactive)
KM12
  GI50: > 100 µM (inactive)
786-0
  GI50: > 100 µM (inactive)
SF-268
  GI50: > 100 µM (inactive)
NCI-H23
  GI50: > 100 µM (inactive)
MDA-MB-231
  GI50: > 100 µM (inactive)
TK-10
  GI50: > 100 µM (inactive)
OVCAR-5
  GI50: > 100 µM (inactive)
MCF7
  GI50: > 100 µM (inactive)
A549
  GI50: > 100 µM (inactive)
PC-3
  GI50: > 100 µM (inactive)
MDA-MB-435
  GI50: > 100 µM (inactive)
EKVX
  GI50: > 100 µM (inactive)
HCT-116
  GI50: > 100 µM (inactive)
SNB-19
  GI50: > 100 µM (inactive)
ACHN
  GI50: > 100 µM (inactive)
MOLT-4
  GI50: > 100 µM (inactive)
NCI/ADR-RES
  GI50: > 100 µM (inactive)
A498
  GI50: > 100 µM (inactive)
HCT-15
  GI50: > 100 µM
SF-295
  GI50: > 100 µM (inactive)
K562
  GI50: > 100 µM (inactive)
OVCAR-3
  GI50: > 100 µM (inactive)
BT-549
  GI50: > 100 µM (inactive)
HOP-92
  GI50: > 100 µM (inactive)
Malme-3M
  GI50: > 100 µM (inactive)
UACC-257
  GI50: > 100 µM (inactive)
CCRF-CEM
  GI50: > 100 µM (inactive)
NCI-H460
  GI50: > 100 µM (inactive)
OVCAR-4
  GI50: > 100 µM (inactive)
T47D
  GI50: > 100 µM (inactive)
M14
  GI50: > 100 µM (inactive)
Hs-578T
  GI50: > 100 µM (inactive)
SW-620
  GI50: > 100 µM (inactive)
RPMI-8226
  GI50: > 100 µM (inactive)
RXF 393
  GI50: > 100 µM (inactive)
COLO 205
  GI50: > 100 µM (inactive)

## COC(=O)NCCc1n[nH]c2c1C(=O)C=C(Nc1ccccc1OC)C2=O
SR
  GI50: 28.5 µM (inactive)
UO-31
  GI50: 42.2 µM (inactive)
SF-539
  GI50: 17.5 µM (inactive)
SN12C
  GI50: 40.3 µM (inactive)
SK-MEL-2
  GI50: 22.2 µM (inactive)
HL-60
  GI50: 21.8 µM (inactive)
UACC-62
  GI50: 18.7 µM (inactive)
SK-MEL-28
  GI50: 38.4 µM (inactive)
OVCAR-8
  GI50: 13.6 µM (inactive)
MDA-N
  GI50: 18.1 µM (inactive)
HT-29
  GI50: 28.1 µM (inactive)
SK-OV-3
  GI50: > 100 µM (inactive)
U-251
  GI50: 24.8 µM (inactive)
SK-MEL-5
  GI50: 13.7 µM (inactive)
HCC 2998
  GI50: 17.7 µM (inactive)
LOX IMVI
  GI50: 23 µM (inactive)
SNB-75
  GI50: 28.2 µM (inactive)
IGROV-1
  GI50: 26.5 µM (inactive)
HOP-62
  GI50: 83.4 µM (inactive)
CAKI-1
  GI50: 33.9 µM (inactive)
DU-145
  GI50: 42.4 µM (inactive)
KM12
  GI50: 24.8 µM (inactive)
786-0
  GI50: 38 µM (inactive)
SF-268
  GI50: 45.7 µM (inactive)
NCI-H522
  GI50: 24.1 µM (inactive)
NCI-H23
  GI50: 16 µM (inactive)
MDA-MB-231
  GI50: 27 µM (inactive)
TK-10
  GI50: 53.7 µM (inactive)
OVCAR-5
  GI50: 61.4 µM (inactive)
MCF7
  GI50: 16 µM (inactive)
A549
  GI50: 41.2 µM (inactive)
PC-3
  GI50: 31.6 µM (inactive)
MDA-MB-435
  GI50: 17.1 µM (inactive)
EKVX
  GI50: 32.8 µM (inactive)
HCT-116
  GI50: 18.9 µM (inactive)
SNB-19
  GI50: > 100 µM (inactive)
ACHN
  GI50: 38.6 µM (inactive)
MOLT-4
  GI50: 21.8 µM (inactive)
NCI/ADR-RES
  GI50: 21.1 µM (inactive)
A498
  GI50: 31.7 µM (inactive)
HCT-15
  GI50: 28.4 µM
SF-295
  GI50: 44.5 µM (inactive)
K562
  GI50: 30 µM (inactive)
OVCAR-3
  GI50: 7.64 µM (inactive)
BT-549
  GI50: 25 µM (inactive)
HOP-92
  GI50: 41.7 µM (inactive)
Malme-3M
  GI50: 14.2 µM (inactive)
UACC-257
  GI50: 17 µM (inactive)
CCRF-CEM
  GI50: 30.1 µM (inactive)
NCI-H460
  GI50: 28.2 µM (inactive)
OVCAR-4
  GI50: 16.8 µM (inactive)
T47D
  GI50: 30.1 µM (inactive)
M14
  GI50: 16.2 µM (inactive)
Hs-578T
  GI50: 28.4 µM (inactive)
SW-620
  GI50: 20.8 µM (inactive)
RPMI-8226
  GI50: 20.5 µM (inactive)
RXF 393
  GI50: 94 µM (inactive)
COLO 205
  GI50: 24.3 µM (inactive)
